Measured values taken from patent publication US20110269777A1, “METHODS AND COMPOSITIONS FOR TREATING SCHIZOPHRENIA USING ANTIPSYCHOTIC COMBINATION THERAPY” (Medivation Neurology, Inc., priority 2007, published 2011).
Structures can show the parent of a compound that is named as a salt.

Tests used:
[1] = system: NMDA-induced currents in cultured rat hippocampus neurons (NMDA receptors); test: NMDA-induced current blocking, patch clamp, whole cell configuration; type: cell-based; conditions: for Effect on the blocking effect of MK-801 on NMDA-induced currents: preliminary application before MK-801
Experimental: Experiments were carried out by the patch clamp method on freshly isolated neurons of a rat brain cortex or on cultured rat hippocampus neurons. Neurons for cultivation were obtained from the hippocampus of neonatal rats (1-2 days) by the method of trypsinization followed by pipetting. Cells suspended in culture medium were placed in 3 mL quantities into the wells of a 6-well planchette (Nunc) or into Petri dishes, in which glasses coated with poly-L-lysine had first been placed. The cell concentration as a rule was […]. The culture medium consisted of Eagle's minimum medium and a DME/F12 medium (1:1) supplemented with 10% calf serum, 2 mM glutamine, 50 μg/mL gentamycin, 15 mM glucose and 20 mM KCl, with the pH brought to between 7.0 and 7.4 using NaHCO3. Planchettes containing cultures were placed in a CO2— incubator at 37° C. and 100% humidity. Cytosine arabinoside (10-20 μL) was added on the second to third day of cultivation. After 6-7 days of cultivation 1 mg/mL glucose was added to the medium, or the medium was exchanged, depending on the following experiment. The cultured hippocampus neurons were placed in a 0.4 mL working chamber. The working solution had the following composition: 150.0 mM NaCl, 5.0 mM KCl, 2.6 mM CaCl2, 2.0 mM MgSO4×7H2O, 10 mM HEPES, and 15.0 mM Glucose, at pH 7.36.
Transmembrane currents produced by application of NMDA were registered by the patch clamp electrophysiological method in the whole cell configuration. Application of substances was done by the method of rapid superfusion. Currents were registered with the aid of borosilicate microelectrodes (resistance […]) filled with the following composition: 100.0 mM KCl, 11.0 mM EGTA, 1.0 mM CaCl2, 1.0 mM MgCl2, 10.0 mM HEPES, and 5.0 mM ATP, at pH 7.2. An EPC-9 instrument (HEKA, Germany) was used for registration. Currents were recorded on the hard disk of a Pentium-IV PC using the pulse program, which is also purchased from HEKA. The results were analyzed with the aid of the Pulsefit program (HEKA).

[2] = system: patients with schizophrenia, paranoid type; test: Double-blind placebo-controlled clinical study, neurocognitive assessment tests; type: in vivo, human
Experimental: (§1) A double-blind, placebo-controlled clinical study was conducted to evaluate the effect of a combination therapy of risperidone (3-[2-[4-(6-fluoro-1,2-benzoxazol-3-yl)piperidin-1-yl]ethyl]-2-methyl-6,7,8,9-tetrahydropyrido[2,1-b]pyrimidin-4-one) plus dimebon (2,8-dimethyl-5-(2-(6-methyl-3-pyridyl)ethyl)-2,3,4,5-tetrahydro-1H-pyrido[4,3-b]indole dihydrochloride) for treatment of chronic schizophrenia compared to risperidone treatment alone. The treatment trial was designed as randomized placebo-controlled, double-blind study of 60 patients meeting diagnostic criteria for schizophrenia, paranoid type, and episodic course (DSM IV-295.30).
(§2) The study included 60 patients with a diagnosis of continuous paranoid and episodic-progressive schizophrenia with a current condition of drug remission or development of drug remission, without regard to the syndrome determining the current mental status. […] According to DSM-IV, these patients met criteria 295.30, schizophrenia, paranoid type, […]. Patients were selected to participate in the study according to the following criteria: (1) inclusion criteria: male patients, 18 year old or older, schizophrenia, paranoid type, and episodic course in remission or partial remission and responders or partial responders to risperidone; and (2) exclusion criteria: excitement, impulsiveness or aggressive behavior (more than moderate), non-responders to antipsychotic treatment including risperidone, having mental disorders other than (or in addition to) schizophrenia, necessity of other treatment and severe acute somatic diseases or decompensated chronic somatic diseases.
(§3) In the first stage of the study (2 weeks), patients who provide an informed consent for participation in the study and who met the inclusion/exclusion criteria were switched to monotherapy with risperidone (dose adjustment of risperidone in range from 2 mg to 6 mg per day), and the clinical stability of the patients was evaluated weekly over two weeks. […] Again, clinical stability of the study participants was evaluated weekly for four weeks. In the third stage (8 weeks), after 4 weeks of monotherapy with risperidone, patients were divided into two groups. Group 1 received dimebon, (20 mg three times daily, n=23) in addition to risperidone therapy. Group 2 received a placebo (n=24) in addition to risperidone therapy. Again, clinical stability of the study participants was evaluated weekly for eight weeks. In the fourth stage (follow-up period), 6 months after completion of therapy within the framework of the protocol, the stability of the characteristics achieved in the course of the study were evaluated. In the fourth stage, clinical stability of the study participants was evaluated monthly for six months.
(§4) The study was conducted as follows. The patients were evaluated clinically and by psychopathological (descriptive) methods during every visit. The patients were evaluated according to the psychometric method at the end of the first period, at the end of the second period, after 4 weeks of the third period and at the end of the third period using the following criteria (A) Efficacy assessment scales such as (1) Positive and Negative Syndrome Scale (PANSS scale; Kay, S. R., Fiszbein, A., and Opler, L. A., Schizophrenia Bulletin 13(2):261-76 (1987)); (2) Clinical Global Impression-Severity (CGI-S) and Clinical Global Impression-Improvement (CGI-I); (3) Calgary depression rating scale (Addington, D., Addington, J., and Maticka-Tyndale E., British J. Psych. Suppl. 22:39-44 (1993)); and (4) Negative Symptoms Assessment-16 (NSA-16) (Alphs, L., Summerfelt, A., Lann, H., and Muller, R. J., Psychopharm. Bull. 25:159-163 (1989)); and (B) Safety scales such as (1) the Barnes Akathisia Rating Scale (BARS) (Barnes, T. R., British J. Psych. 154:672-676 (1989)); and (2) the Simpson-Angus Rating Scale (SARS) (Simpson, G. N. and Angus, J. W. S., Acta Psych. Scand. 212(suppl. 44):11-19 (1970)). […]

[3] = system: patients with schizophrenia, paranoid type
[4] = system: patients with schizophrenia, paranoid type; test: Double-blind placebo-controlled clinical study, efficacy assessment scales (PANSS, CGI, Calgary, NSA-16); type: in vivo, human
Experimental: as §1, §2, §3, §4

[5] = end (8 weeks dimebon + risperidone)
[6] = start (before adding dimebon to risperidone)
[7] = end (8 weeks dimebon 20 mg three times daily + risperidone)

N[C@H](CCCP(=O)(O)O)C(=O)O [D-AP5, D-2-amino-5-phosphonovaleric acid, reference compound]
Effect on the blocking effect of MK-801 on NMDA-induced currents [1]: did not decrease

Cc1ccc2c(c1)c1c(n2CCc2ccc(C)nc2)CCN(C)C1 [Dimebon, 2,8-dimethyl-5-[2-(6-methylpyridyl-3)ethyl]-2,3,4,5-tetrahydro-1H-pyrido[4,3-b]indole dihydrochloride]
verbal associative memory, psychomotor speed, visual-spatial memory and number aspects of executive functioning ([2]; dimebon group, start to end of 8 weeks on risperidone background): significant improvement
Benton test: sum error [2, 5]: 6.5 ± 4.4
Benton test: sum reconst [2, 5]: 6 ± 2.21
Bourdohn test: attention concentration [2, 5]: 0.986 ± 0.013
Bourdohn test: attention productivity [2, 5]: 497 ± 170
Bourdohn test: attention stability [2, 5]: 0.009 ± 0.006
CAT: correct answer account [2, 5]: 37 ± 8.2
CAT: reaction time [2, 5]: 630.17 ± 195.55
Schulte tables: sum time [2, 5]: 166 ± 64
Text 1 Reconstruction 1. quantity of elements [2, 5]: 7 ± 2.6
Text 2 Reconstruction 1 quantity of elements [2, 5]: 9 ± 3.0
Tower of London - correct score [2, 5]: 3.26
Tower of London - execution time [2, 5]: 234 ± 115
Tower of London - sum total time > 60 sec [2, 5]: 0 ± 1.5
Tower of London -move score [2, 5]: 34 ± 19
Wechsler memory scale, subtest V: series A [2, 5]: 6 ± 0.9
Wechsler memory scale, subtest V: sum A and B [2, 5]: 9.5 ± 2.7
Wechsler memory scale, subtest V: sum A and B, (T-scores) [2, 5]: 8 ± 2.3
Wechsler memory scale, subtest VII: sum comlex [2, 5]: 4.5 ± 3.34
Wechsler memory scale, subtest VII: sum simple [2, 5]: 17 ± 2.9
Wechsler memory scale, subtestV: series B [2, 5]: 4 ± 0.9
Wechsler test, subtest VII: Symbol coding [2, 5]: 6 ± 1.4
Wisconsin CS test - conceptual level responses, T score [2, 5]: 44 ± 6.7
Wisconsin CS test - nonperseverative errors, T score [2, 5]: 43 ± 9.6
Wisconsin CS test - perseverative responses, T score [2, 5]: 45 ± 5.53
Wisconsin CS test - total error - T score [2, 5]: 43 ± 8.1
Wisconsin CS test perseverative errors, T score [2, 5]: 44 ± 5.6
Wisconsin CS test: categories completed [2, 5]: 5 ± 1.9
Wisconsin CS test: total correct responses [2, 5]: 78 ± 14
Benton test: sum error [2, 6]: 8 ± 3.8
Benton test: sum reconst [2, 6]: 5 ± 1.7
Bourdohn test: attention concentration [2, 6]: 0.975 ± 0.03
Bourdohn test: attention productivity [2, 6]: 399 ± 123
Bourdohn test: attention stability [2, 6]: 0.01 ± 0.01
CAT: correct answer account [2, 6]: 35 ± 8.5
CAT: reaction time [2, 6]: 606.74±
Schulte tables: sum time [2, 6]: 160 ± 105
Text 1 Reconstruction 1. quantity of elements [2, 6]: 5 ± 2.3
Text 2 Reconstruction 1 quantity of elements [2, 6]: 7 ± 2.7
Tower of London - correct score [2, 6]: 2 ± 1.1
Tower of London - execution time [2, 6]: 298 ± 227
Tower of London - sum total time > 60 sec [2, 6]: 1.5 ± 3
Tower of London -move score [2, 6]: 46 ± 25
Wechsler memory scale, subtest V: series A [2, 6]: 6 ± 1
Wechsler memory scale, subtest V: sum A and B [2, 6]: 10 ± 1.7
Wechsler memory scale, subtest V: sum A and B, (T-scores) [2, 6]: 9 ± 2.3
Wechsler memory scale, subtest VII: sum comlex [2, 6]: 3 ± 2.7
Wechsler memory scale, subtest VII: sum simple [2, 6]: 14 ± 4
Wechsler memory scale, subtestV: series B [2, 6]: 4 ± 1.2
Wechsler test, subtest VII: Symbol coding [2, 6]: 5 ± 1.8
Wisconsin CS test - conceptual level responses, T score [2, 6]: 43 ± 5.9
Wisconsin CS test - nonperseverative errors, T score [2, 6]: 41 ± 7.9
Wisconsin CS test - perseverative responses, T score [2, 6]: 43 ± 8.38
Wisconsin CS test - total error - T score [2, 6]: 43 ± 6.8
Wisconsin CS test perseverative errors, T score [2, 6]: 43 ± 8.21
Wisconsin CS test: categories completed [2, 6]: 4 ± 1.7
Wisconsin CS test: total correct responses [2, 6]: 79 ± 16
Blockade of NMDA-induced currents (%) ([1]; at 10 μM, cultured rat hippocampus neurons): By 50-70% at 10 μM
IC50 ([1]; average, read-out: IC50, blocking of currents caused by application of NMDA): 7.7 ± 1.9 µM
Effect on the blocking effect of MK-801 on NMDA-induced currents [1]: capable of reducing
safety issues ([3]; dimebon 20 mg three times daily + risperidone, 8 weeks): no safety issues
BARS and SARS safety scales, difference between study groups ([3]; dimebon group vs placebo group): no differences
total PANSS score relative to placebo ([4]; adjunctive dimebon on background risperidone therapy): significant reduction
% improvement [4, 7]: 8.14 ± 49.4%
CGI I [4, 7]: 2.7 ± 1.0
CGI-S [4, 7]: 3.9 ± 1.2
Calgary scale of depression [4, 7]: 8.1 ± 9.97
NSA-16 [4, 7]: 48.5 ± 22.7
PANSS general psychopathol [4, 7]: 31.4 ± 11.1
PANSS negative [4, 7]: 18.48 ± 7.01
PANSS positive [4, 7]: 12.0 ± 5.9
PANSS total [4, 7]: 61.9 ± 22.2
CGI-S [4, 6]: 4.3 ± 1
Calgary scale of depression [4, 6]: 11.6 ± 11.6
NSA-16 [4, 6]: 64.65 ± 22.8
PANSS general psychopathol [4, 6]: 39.1 ± 8.1
PANSS negative [4, 6]: 22.5 ± 5.15
PANSS positive [4, 6]: 16.9 ± 4.6
PANSS total [4, 6]: 78.5 ± 14.1
